Measured values reported in patent US4311791A, “Automated kinetic determination of lactate dehydrogenase isoenzymes in serum” (priority 1980, dated 1982).

How the values were obtained:
[1] = test system: LD from human kidney; details: previously reported, mean ± 2 SD; cited from earlier work
[2] = test system: LD from human spleen; assay: Inhibition of human spleen LD, present method; format: biochemical; details: mean ± 2 SD, at least seven sources
Method: (§1) Preparation of tissue. Human tissue extracts were prepared by sonic disruption (at 4° l C. for 1 min.) of 1 g (wet weight) of tissue in 9 ml of potassium phosphate buffer (0.1 mol/liter, pH 7.0). The homogenates were centrifuged at 4° C. at 5×10^4 g for 10 min.; and the superiors were promptly examined for LD activity and stored at -80° C.
(§2) Assay for total LD activity. The measurements were at 340 nm and 25° C. in a Model 240 (Gilford Instrument, Oberlin, Ohio 44074) digital kinetic spectrophotometer when manual determinations were needed to supply data for calibration curves with purified enzymes or with tissue extracts, and for serum assays in the preliminary stages of developing the method. Sera were assayed at 25° C. in a centrifugal analyzer (GEMSAEC; Electronucleonics, Inc., Fairfield, N.J. 07006) after the optimum conditions were known to be suitable for manual determinations. For automated determinations 500 ul of pyruvate reaction mixture and 50 ul of serum (an 11-fold dilution of the serum) were required. Conditions for measuring total LD activity were: 0.34 mmol of pyruvate and 0.13 mmcl of NADH per liter of the phosphate buffer. The molar absorptivity 6.22×10^3 liter mol^-1 cm^-1 for NADH was used in calculating enzyme activity in IUB units.
(§3) Kinetic determination of isoenzymes. […]

[3] = target: T1, LD from human liver (Homo sapiens, UniProt P00338); assay: Inhibition of LD activity in human liver extract by high pyruvate, without preincubation (present method); format: biochemical
T1 construct: Human tissue extracts were prepared by sonic disruption; from tissue; host or cells: human liver, crude extract (sonicated, supernatant of centrifugation)
Method: as §1, §2
(§4) Kinetic determination of isoenzymes. LD's are inhibited by their substrate, the H-type LD being inhibited by pyruvate to a greater extent than the M-type LD. This inhibition, related to the formation of an abortive ternary complex, was the basis of the method that has been used to distinguish the heart enzyme from the muscle enzyme after preincubation. […]

[4] = target: T2, LD from human heart (Homo sapiens, UniProt P07195); details: previously reported, mean ± 2 SD; cited from earlier work
T2 construct: Human tissue extracts were prepared by sonic disruption; from tissue; host or cells: human heart, crude extract (sonicated, supernatant of centrifugation)
T2 sequence (P07195 2-334): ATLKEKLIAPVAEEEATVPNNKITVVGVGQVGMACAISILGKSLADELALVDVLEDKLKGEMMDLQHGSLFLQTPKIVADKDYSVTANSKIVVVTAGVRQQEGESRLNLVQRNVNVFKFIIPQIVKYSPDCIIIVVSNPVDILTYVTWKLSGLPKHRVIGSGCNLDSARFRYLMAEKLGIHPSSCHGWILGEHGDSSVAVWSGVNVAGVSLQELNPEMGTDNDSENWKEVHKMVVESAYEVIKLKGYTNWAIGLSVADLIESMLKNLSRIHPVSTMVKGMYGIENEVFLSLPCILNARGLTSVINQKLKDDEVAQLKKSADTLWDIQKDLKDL

[5] = test system: LD from human muscle; details: previously reported, mean ± 2 SD; cited from earlier work
[6] = test system: LD from human brain; assay: Inhibition of human brain LD, present method; format: biochemical; details: mean ± 2 SD, at least seven sources
Method: as §1, §2, §3

[7] = target: T2, LD from human heart; assay: Inhibition of LD activity in human heart extract by high pyruvate, without preincubation (present method); format: biochemical
Method: as §1, §2, §4

[8] = test system: M-type LD; assay: Kinetic determination of isoenzymes: inhibition of human M-type LD without preincubation; format: biochemical; details: 5 mmol pyruvate and 0.13 mmol NADH per liter, phosphate buffer pH 7.0
Method: (§5) Kinetic determination of isoenzymes. LD's are inhibited by their substrate, the H-type LD being inhibited by pyruvate to a greater extent than the M-type LD. This inhibition, related to the formation of an abortive ternary complex, was the basis of the method that has been used to distinguish the heart enzyme from the muscle enzyme after preincubation.
(§6) Conditions for inhibiting the human LD activity without any preincubation were: 5 mmol of pyruvate and 0.13 mmol of NADH per liter of 100 l mmol/liter potassium phosphate buffer, pH 7.0.

[9] = test system: H-type LD; assay: Kinetic determination of isoenzymes: inhibition of human H-type LD without preincubation; format: biochemical; details: 5 mmol pyruvate and 0.13 mmol NADH per liter, phosphate buffer pH 7.0
Method: as §5, §6

[10] = test system: LD from human brain; details: previously reported, mean ± 2 SD; cited from earlier work
[11] = target: chicken heart LD (Gallus gallus, UniProt P00337); assay: Inhibition of chicken heart LD by pyruvate; format: biochemical; details: 3.4 mmol/liter pyruvate
Chain of chicken heart LD (P00337 whole entry): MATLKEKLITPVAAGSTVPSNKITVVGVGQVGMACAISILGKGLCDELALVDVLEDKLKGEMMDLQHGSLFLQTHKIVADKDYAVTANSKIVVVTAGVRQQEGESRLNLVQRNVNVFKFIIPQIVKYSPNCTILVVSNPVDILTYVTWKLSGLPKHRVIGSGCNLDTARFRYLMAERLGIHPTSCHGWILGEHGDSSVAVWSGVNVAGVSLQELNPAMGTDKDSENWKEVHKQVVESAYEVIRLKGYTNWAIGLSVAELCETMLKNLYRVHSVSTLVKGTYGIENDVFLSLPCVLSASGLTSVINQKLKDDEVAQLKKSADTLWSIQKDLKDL
Method: as §2
(§7) Assay conditions. Studies of the pH dependence of the inhibition of chicken heart LD at an initial substrate concentration of 3.4 mmol/liter pyruvate (control rate, 0.1 absorbance unit change per minute at 0.34 mmol/liter pyruvate) indicated the pH for maximum inhibition of LD activity to be pH 7, although pH 6.5 was also suitable for the inhibition. […]

[12] = test system: rabbit muscle LD; assay: Activity/inhibition of crystalline rabbit muscle LD at high pyruvate; format: biochemical
Method: as §2, §7

[13] = target: T1, LD from human liver; details: previously reported, mean ± 2 SD; cited from earlier work
[14] = test system: LD from human kidney; assay: Inhibition of human kidney LD, present method; format: biochemical; details: mean ± 2 SD, at least seven sources
Method: as §1, §2, §3

[15] = test system: LD from human spleen; details: previously reported, mean ± 2 SD; cited from earlier work
[16] = test system: LD from human muscle; assay: Inhibition of human muscle LD, present method; format: biochemical; details: mean ± 2 SD, at least seven sources
Method: as §1, §2, §3

[17] = present method, mean ± 2 SD, at least seven sources

## CC(=O)C(=O)[O-].[Na+] [pyruvate, Sodium pyruvate]
[1]
  Percent inhibition, Preincubation method, Kidney: 53.0 ± 15.1%
[2]
  Percent inhibition, Present method, Spleen: 43.5 ± 9.0%
[3]; 5 mmol/liter pyruvate, pH 6
  Percent inhibition, Liver: 53%
[3]; 5 mmol/liter pyruvate, pH 7
  Percent inhibition, Liver: 20%
[3]; 5 mmol/liter pyruvate, pH 8, negative sign = increased rate
  Percent inhibition, Liver: -19%
[3]; 10 mmol/liter pyruvate, pH 6
  Percent inhibition, Liver: 65%
[3]; 10 mmol/liter pyruvate, pH 7
  Percent inhibition, Liver: 50%
[3]; 10 mmol/liter pyruvate, pH 8, negative sign = increased rate
  Percent inhibition, Liver: -14%
[3]; [17]
  Percent inhibition, Present method, Liver: 17.6 ± 11.8%
[4]
  Percent inhibition, Preincubation method, Heart: 61.1 ± 8.3%
[5]
  Percent inhibition, Preincubation method, Muscle: 17.3 ± 12.2%
[6]
  Percent inhibition, Present method, Brain: 50.6 ± 8.4%
[7]; 5 mmol/liter pyruvate, pH 6
  Percent inhibition, Heart: 90%
[7]; 5 mmol/liter pyruvate, pH 7
  Percent inhibition, Heart: 69%
[7]; 5 mmol/liter pyruvate, pH 8
  Percent inhibition, Heart: 40%
[7]; 10 mmol/liter pyruvate, pH 6
  Percent inhibition, Heart: 91%
[7]; 10 mmol/liter pyruvate, pH 7
  Percent inhibition, Heart: 79%
[7]; 10 mmol/liter pyruvate, pH 8
  Percent inhibition, Heart: 50%
[7]; [17]
  Percent inhibition, Present method, Heart: 60.8 ± 10.8%
[8]
  inhibition of the M-type LD: slight inhibition
[9]
  inhibition of the H-type LD: more than 50%
[10]
  Percent inhibition, Preincubation method, Brain: 59.0 ± 6.6%
[11]
  pH for maximum inhibition of LD activity: 7
[11]; pH 8 and above
  inhibition of chicken heart LD: no inhibition was seen
[12]; 3.4 mmol/liter pyruvate
  reaction rate, % of the maximum velocity: 114%
[12]; 10 mmol/liter pyruvate
  inhibition of rabbit muscle LD: 2%
[13]
  Percent inhibition, Preincubation method, Liver: 18.3 ± 10.0%
[14]
  Percent inhibition, Present method, Kidney: 53.1 ± 5.0%
[15]
  Percent inhibition, Preincubation method, Spleen: 41.3 ± 8.5%
[16]
  Percent inhibition, Present method, Muscle: 16.1 ± 11.8%
